Data as given in article PMC8691691 (ACS Chemical Neuroscience, 2021).
Residue numbers refer to the chain shown, from its start. Like-named read-outs stand apart in the source and are kept apart here.

Legend:
GlyT2 W217F mutant = target: T1, GlyT2 W217F mutant (Rattus norvegicus, UniProt P58295, W217F); assay: [3H]glycine transport by GlyT2 mutant in COS7 cells; format: cell-based
T1 construct: expressed in transfected cells; host or cells: COS7
T1 sequence (P58295 1-799 W217F): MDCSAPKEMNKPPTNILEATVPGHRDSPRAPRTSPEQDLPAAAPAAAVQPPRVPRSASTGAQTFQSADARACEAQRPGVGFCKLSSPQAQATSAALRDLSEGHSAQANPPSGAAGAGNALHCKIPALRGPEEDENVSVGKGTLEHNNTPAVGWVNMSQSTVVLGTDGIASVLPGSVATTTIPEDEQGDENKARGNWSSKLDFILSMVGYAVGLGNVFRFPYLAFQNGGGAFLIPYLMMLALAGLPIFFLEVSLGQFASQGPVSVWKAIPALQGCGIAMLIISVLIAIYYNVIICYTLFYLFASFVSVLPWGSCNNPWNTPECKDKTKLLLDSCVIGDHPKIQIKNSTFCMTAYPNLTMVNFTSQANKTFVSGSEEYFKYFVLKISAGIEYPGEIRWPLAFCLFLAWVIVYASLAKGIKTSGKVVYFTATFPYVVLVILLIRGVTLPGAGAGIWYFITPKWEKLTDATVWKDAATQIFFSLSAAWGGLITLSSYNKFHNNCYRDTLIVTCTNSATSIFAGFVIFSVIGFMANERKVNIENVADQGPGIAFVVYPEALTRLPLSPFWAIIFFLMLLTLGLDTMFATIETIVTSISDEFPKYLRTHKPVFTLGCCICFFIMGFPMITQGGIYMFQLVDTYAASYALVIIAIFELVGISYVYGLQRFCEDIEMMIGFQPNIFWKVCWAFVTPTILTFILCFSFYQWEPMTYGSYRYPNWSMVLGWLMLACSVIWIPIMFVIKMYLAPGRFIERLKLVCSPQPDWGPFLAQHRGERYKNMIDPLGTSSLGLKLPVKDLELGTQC

GlyT2 I285F mutant = target: T2, GlyT2 I285F mutant (Rattus norvegicus, UniProt P58295, I285F); assay: as above; format: cell-based
T2 construct: expressed in transfected cells; host or cells: COS7
T2 sequence (P58295 1-799 I285F): T1 sequence (P58295 1-799 W217F) with F217W, I285F

GlyT2 A210C mutant = target: T3, GlyT2 A210C mutant (Rattus norvegicus, UniProt P58295, A210C); assay: as above; format: cell-based
T3 construct: expressed in transfected cells; host or cells: COS7
T3 sequence (P58295 1-799 A210C): T1 sequence (P58295 1-799 W217F) with A210C, F217W

[1] = cited from earlier work

Work on `N[C@@H](COC(c1cccc(F)c1)c1ccccc1OCc1ccccc1)C(=O)O` (stereo partly drawn) [ALX1393] yielded an IC50 (GlyT2 W217F mutant; read-out: IC50 (Table S1)) of 23 ± 5 nM, an IC50 (GlyT2 I285F mutant; read-out: IC50 (Table S1)) of 91 ± 6 nM and an IC50 (GlyT2 A210C mutant; read-out: IC50 (Table S1)) of 23 ± 3 nM. The “fraction of the drug that crosses the blood–brain barrier” value [1] was 5%.
With `COc1cc(C(=O)NCC2(N(C)C)CCCC2)cc(OC)c1OCc1ccccc1` [ORG25543, N-[[1-(dimethylamino)cyclopentyl]methyl]-3,5-dimethoxy-4-(phenylmethoxy)benzamide] the IC50 (GlyT2 W217F mutant) was 93 ± 7 nM, the “effect of mutation on inhibition of glycine transport” value (GlyT2 W217F mutant; W217F, 1 μM inhibitor, 20 μM glycine) was “selectively reduced ORG25543 inhibition” and the IC50 (GlyT2 I285F mutant) was 15 ± 4 nM. The IC50 (GlyT2 A210C mutant) was 20 ± 12 nM and the “blood–brain barrier crossing (in words)” value [1] was “can cross the blood–brain barrier”.
